Where a SMILES comes first, the peptide text is derived from it. [ ]: non-standard residue; d: D form. Thz = O=C(O)[C@@H]1CSCN1
How the values were obtained:
male ICR mice [1] = assay: Analgesic assay by the tail-flick method in mice; format: in vivo; details: for Tail-flick inhibition after intravenous injection: 1.1 to 8.5 mg/kg injected intravenously; for Effect of naloxone pretreatment on inhibition of the tail-flick response: Naloxone HCl 3 mg/kg subcutaneously 5 min before the analog; for Tail-flick inhibition after central application: doses 0.17 to 0.85 μg (D-Met analog) and 0.011 to 0.085 μg (D-Thr analog); for Intracerebroventricular AD50 (median antinociceptive dose) / Intracerebroventricular potency ratio / Intravenous AD50 (median antinociceptive dose) / Intravenous potency ratio: mice; for Intracerebroventricular AD50 (median antinociceptive dose): intracerebroventricular (central) injection; for Intracerebroventricular AD50 (median antinociceptive dose) / Intravenous AD50 (median antinociceptive dose): tail-flick; for Intracerebroventricular potency ratio / Intravenous potency ratio: relative to morphine sulfate = 1, molar basis; for Intravenous AD50 (median antinociceptive dose): intravenous injection via tail vein; for Analgesic activity (summary statement): mouse, in vivo
Procedure: For analgesic assay, male ICR mice weighing 25-30 g were used in all the experiments. The enkephalin analogs dissolved in saline were administered either centrally according to the method described by Haley and McCormick, Br. J. Pharmacol, 12, 12 (1957) or intravenously via the tail vein. The injection volume is 5 μl for central injection and 10 μl per gram body weight for intravenous injection. Naloxone HCl (3 mg/kg) was injected subcutaneously 5 min before the administration of enkephalin analogs. Analgesic activity was assayed by the tail-flick method of D'Amour and Smith, J. Pharmacol, Exp. Ther. 72, 74 (1941).
The percent of analgesia was calculated as [(T1 -T0)/(T2 -T0)] × 100, where a control latency (T0) was obtained from the mean of two latencies determined before drug injection; the test latencies (T1) were determined at various times after injection for each animal; the cutoff time (T2) for the tail-flick was 7 seconds. The median analgesic dose (AD50) and 95% confidence limits were calculated according to the method of Litchfield and Wilcoxon, J. Pharacol. Exp. Ther. 96, 99 (1949). The locomotor activity to the mice was measured with an electronic Fe 40 motility meter (Motron Produkter, Stockholm, Sweden). The detail of the experimental method has been described by Tseng et al., Nature (London) 263, 239 (1976).

[2] = cited from earlier work; for Analgesic activity reported in the literature: in vivo
male ICR mice [3] = details: cited from earlier work

Row | Molecule | Intracerebroventricular AD50 (median antinociceptive dose) (male ICR mice [1]) [nmole/mouse] | Intracerebroventricular potency ratio (male ICR mice [1]) | Intravenous AD50 (median antinociceptive dose) (male ICR mice [1]) [µmol/kg] | Intravenous potency ratio (male ICR mice [1]) | further results
1 | CSCC[C@@H](NC(=O)[C@@H](N)Cc1ccc(O)cc1)C(=O)NCC(=O)N[C@@H](Cc1ccccc1)C(=O)N1CSC[C@H]1C(N)=O [D-Met^2,Thz^5 -Enkephalinamide, H-Tyr-D-Met-Gly-Phe-Thz-NH2] (H-Y[dM]GF[Thz]-NH2) | 0.145 | 7.7 | 2.71 | 4.2 | Tail-flick inhibition after intravenous injection (male ICR mice [1]): active in inhibiting the tail-flick response; Effect of naloxone pretreatment on inhibition of the tail-flick response (male ICR mice [1]): blocked by the pretreatment of naloxone; AD50, times higher than [D-Thr^2,Thz^5 ]-enkephalinamide (male ICR mice [1]; applied centrally): 3.5 times; Tail-flick inhibition after central application (male ICR mice [1]; applied centrally): dose-related increase in intensity and duration of the tail-flick inhibition; Analgesic activity (summary statement) (male ICR mice [1]): potent analgesic agents
2 | C[C@H](O)[C@@H](NC(=O)[C@@H](N)Cc1ccc(O)cc1)C(=O)NCC(=O)N[C@@H](Cc1ccccc1)C(=O)N1CSC[C@H]1C(N)=O [D-Thr^2,Thz^5 -Enkephalinamide, H-Tyr-D-Thr-Gly-Phe-Thz-NH2] (H-Y[dT]GF[Thz]-NH2) | 0.04 | 27.1 | 2.40 | 4.8 | Tail-flick inhibition after intravenous injection (male ICR mice [1]): active in inhibiting the tail-flick response; Effect of naloxone pretreatment on inhibition of the tail-flick response (male ICR mice [1]): blocked by the pretreatment of naloxone; Potency, times more potent than [D-Met^2, Thz^5 ]-enkephalinamide (male ICR mice [1]; applied centrally): 3.5 times; Tail-flick inhibition after central application (male ICR mice [1]; applied centrally): dose-related increase in intensity and duration of the tail-flick inhibition; Duration of analgesia (male ICR mice [1]; intravenous injection): longer than that produced by [D-Met^2,Thz^5 ]-enkephalinamide; Analgesic activity (summary statement) (male ICR mice [1]): potent analgesic agents
3 | CN1CC[C@]23c4c5ccc(O)c4O[C@H]2[C@@H](O)C=C[C@H]3[C@H]1C5.O=S(=O)(O)O [Morphine sulfate, reference compound] | 1.11 |  | 11.4 |  | 
4 | D-Ala^2, MePhe^4, Met-O^5 -ol enkephalin |  |  |  |  | Analgesic activity reported in the literature [2]: most potent analgesic of the group; Oral activity reported in the literature ([2]; oral): orally active
5 | D-Ala^2,D-Leu^5 -Enkephalin [reference compound] | 0.035 | 31.7 |  |  | 
6 | Met-enkephalin [reference compound] | > 174 | < 0.006 | > 60 | < 0.19 | 
7 | [D-Met^2, Pro^5 ]-enkephalinamide |  |  |  |  | Analgesic activity reported in the literature [2]: potent analgesic agent
8 | βc -Endorphin (YGGFMTSEKSQTPLVTLFKNAIIKNAHKKGQ; Beta-endorphin; UniProt P01203 1-31, looked up) [reference compound] | 0.032 | 34.7 | 2.7 | 4.2 | Locomotor activity (previously shown) (male ICR mice [3]): stimulate locomotor activity weakly or not at all

Reference: patent US4103005A, “Novel-enkephalin analogs” (Hoffmann-La Roche Inc., priority 1977, dated 1978)
